“And” between values parts separate entries of the source, which are not always exact repeats. Identical values can stand only once. The source made the active and inactive calls. Where a SMILES comes first, the peptide text is derived from it. [ ]: non-standard residue; d: D form. The star is where a group is joined. ξ: configuration not given here. Cbz = O=C(OCc1ccccc1)*; ξL = CC(C)CC(N)C(=O)O; ξP = O=C(O)C1CCCN1
Tests used:
Cytochrome P450 2C9 = Cytochrome P450 2C9 (Homo sapiens, UniProt P11712)
Cytochrome P450 2C9, sequence (P11712 whole entry): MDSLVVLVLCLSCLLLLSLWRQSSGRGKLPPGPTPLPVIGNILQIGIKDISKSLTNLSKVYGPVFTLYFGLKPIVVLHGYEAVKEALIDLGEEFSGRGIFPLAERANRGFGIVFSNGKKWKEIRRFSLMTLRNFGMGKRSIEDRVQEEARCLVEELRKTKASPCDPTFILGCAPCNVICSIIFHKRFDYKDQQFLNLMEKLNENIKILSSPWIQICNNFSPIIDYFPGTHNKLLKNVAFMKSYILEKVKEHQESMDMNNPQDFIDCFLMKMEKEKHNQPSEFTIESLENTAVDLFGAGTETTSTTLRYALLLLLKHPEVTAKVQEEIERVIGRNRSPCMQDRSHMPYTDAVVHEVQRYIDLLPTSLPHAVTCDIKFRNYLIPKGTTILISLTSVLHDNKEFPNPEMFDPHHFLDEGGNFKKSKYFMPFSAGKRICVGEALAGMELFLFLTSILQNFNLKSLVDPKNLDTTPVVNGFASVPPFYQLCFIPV

[1] = inhibitors of intracellular T. cruzi replication, confirmation, NIH3T3 host cells, beta-gal luminescence (AID 2044); format: functional, cell-based;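 also: intracellular parasites grown in NIH/3T3 mouse fibroblasts as host cells; luminescent beta-galactosidase reporter signal from transgenic T. cruzi replicating inside host cells; inhibitors lower the luminescence signal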
[2] = cytotoxicity toward NIH3T3 fibroblasts, dose response, counter-screen, cell-based, ATP luminescence, mouse fibroblasts (AID 2010); format: functional;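 also: cells exposed to compound for about 90 hours before reading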
[3] = Luminescence Cell-Based Dose Retest to Confirm Inhibitors of Cancer Stem Cells. [Related pubchem assays (depositor defined):AID2717, AID2721]; format: functional; details: Homo sapiens
Cytochrome P450 1A2 = target: T1, Cytochrome P450 1A2 (Homo sapiens, UniProt P05177);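 also: PubChem cytochrome P450 panel assay, CYP1A2 panel member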
T1 sequence (P05177 whole entry): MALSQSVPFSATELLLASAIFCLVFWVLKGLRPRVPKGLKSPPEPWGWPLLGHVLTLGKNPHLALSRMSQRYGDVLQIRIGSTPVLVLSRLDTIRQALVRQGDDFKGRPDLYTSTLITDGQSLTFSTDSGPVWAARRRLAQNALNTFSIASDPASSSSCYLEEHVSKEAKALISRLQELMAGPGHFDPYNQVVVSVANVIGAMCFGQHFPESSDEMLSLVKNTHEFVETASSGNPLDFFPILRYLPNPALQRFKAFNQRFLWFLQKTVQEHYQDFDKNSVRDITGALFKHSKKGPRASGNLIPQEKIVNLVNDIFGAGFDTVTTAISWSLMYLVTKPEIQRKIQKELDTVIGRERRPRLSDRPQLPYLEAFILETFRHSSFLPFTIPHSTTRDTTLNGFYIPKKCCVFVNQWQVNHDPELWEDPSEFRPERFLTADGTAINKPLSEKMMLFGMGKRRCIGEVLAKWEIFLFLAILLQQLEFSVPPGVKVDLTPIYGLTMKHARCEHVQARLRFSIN

[4] = target: T2, Heat shock factor protein 1 (Mus musculus, UniProt P38532); assay: inhibition of MG132-induced HSE-luciferase signal, confirmation, cell-based, NIH3T3, luminescence, dose retest (AID 2382); format: functional;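 also: NIH3T3 fibroblasts with HSF1-driven luciferase reporter stressed by proteasome inhibitor MG132; luminescence from HSF1-driven luciferase expression after 8 hours of MG132 stress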
T2 sequence (P38532 whole entry): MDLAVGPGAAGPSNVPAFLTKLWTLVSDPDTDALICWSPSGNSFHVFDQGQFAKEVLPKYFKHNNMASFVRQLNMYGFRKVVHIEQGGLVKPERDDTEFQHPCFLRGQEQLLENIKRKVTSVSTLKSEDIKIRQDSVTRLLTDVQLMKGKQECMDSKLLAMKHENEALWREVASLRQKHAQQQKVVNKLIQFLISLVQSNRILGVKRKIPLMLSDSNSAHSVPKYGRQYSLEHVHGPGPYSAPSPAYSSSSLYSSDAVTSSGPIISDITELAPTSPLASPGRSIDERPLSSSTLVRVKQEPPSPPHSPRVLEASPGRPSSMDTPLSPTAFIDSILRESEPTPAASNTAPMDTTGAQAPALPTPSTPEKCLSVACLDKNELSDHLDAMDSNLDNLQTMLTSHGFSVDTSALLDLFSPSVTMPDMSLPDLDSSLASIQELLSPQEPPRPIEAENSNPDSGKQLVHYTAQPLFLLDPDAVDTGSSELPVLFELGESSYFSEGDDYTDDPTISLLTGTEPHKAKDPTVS

Cytochrome P450 2D6 = Cytochrome P450 2D6 (Homo sapiens, UniProt P10635);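 also: CYP2D6 member of a cytochrome P450 panel assay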
Cytochrome P450 2D6, sequence (P10635 whole entry): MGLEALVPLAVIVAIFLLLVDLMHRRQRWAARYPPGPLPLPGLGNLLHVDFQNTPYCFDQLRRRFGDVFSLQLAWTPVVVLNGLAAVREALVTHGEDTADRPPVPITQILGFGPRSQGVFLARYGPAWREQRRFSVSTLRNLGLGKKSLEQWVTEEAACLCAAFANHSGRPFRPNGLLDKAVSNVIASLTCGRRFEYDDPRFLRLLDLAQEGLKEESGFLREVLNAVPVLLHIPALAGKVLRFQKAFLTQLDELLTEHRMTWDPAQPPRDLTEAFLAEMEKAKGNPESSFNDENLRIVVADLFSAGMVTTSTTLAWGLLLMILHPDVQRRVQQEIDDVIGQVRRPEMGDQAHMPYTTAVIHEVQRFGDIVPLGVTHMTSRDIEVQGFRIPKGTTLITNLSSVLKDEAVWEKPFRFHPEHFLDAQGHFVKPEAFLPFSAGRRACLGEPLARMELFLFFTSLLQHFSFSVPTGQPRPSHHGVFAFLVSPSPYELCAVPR

Cytochrome P450 3A4 = Cytochrome P450 3A4 (Homo sapiens, UniProt P08684);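 also: CYP3A4 tested as one member of a cytochrome P450 panel screen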
Cytochrome P450 3A4, sequence (P08684 whole entry): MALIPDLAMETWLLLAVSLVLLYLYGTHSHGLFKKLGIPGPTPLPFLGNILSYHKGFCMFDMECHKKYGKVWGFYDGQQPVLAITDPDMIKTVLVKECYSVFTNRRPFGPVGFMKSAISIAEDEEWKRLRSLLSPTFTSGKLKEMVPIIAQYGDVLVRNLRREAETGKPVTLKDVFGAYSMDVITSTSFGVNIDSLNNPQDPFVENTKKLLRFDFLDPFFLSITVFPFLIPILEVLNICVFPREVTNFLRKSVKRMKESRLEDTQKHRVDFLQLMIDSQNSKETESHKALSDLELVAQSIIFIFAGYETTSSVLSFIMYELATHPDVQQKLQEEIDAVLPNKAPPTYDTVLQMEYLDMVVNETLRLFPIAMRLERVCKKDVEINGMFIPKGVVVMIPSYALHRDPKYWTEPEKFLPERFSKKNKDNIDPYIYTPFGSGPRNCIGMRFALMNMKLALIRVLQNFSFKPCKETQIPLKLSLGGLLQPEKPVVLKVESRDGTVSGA

Streptococcus = assay: Group A Streptococcus viability loss, dose response, counter-screen for streptokinase expression inhibitor project, luminescence, BacTiterGlo (AID 1915); format: functional, organism-based;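 also: potency for reduction of bacterial viability or growth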
[5] = tested on: Streptococcus sp. 'group A'; assay: growth inhibition of control SK(-) GAS strain, dose response, counter-screen for streptokinase expression inhibitor project, luminescence, kanamycin, BacTiterGlo, confirmation (AID 1900); format: functional, organism-based
Cytochrome P450 2C19 = Cytochrome P450 2C19 (Homo sapiens, UniProt P33261); assay: Cytochrome panel assay with activity outcomes. Panel member name: p450-cyp2c19 Compounds with AC50 equal or less than 10 uM are considered active; format: functional; details: read-out: AC50
Cytochrome P450 2C19, sequence (P33261 whole entry): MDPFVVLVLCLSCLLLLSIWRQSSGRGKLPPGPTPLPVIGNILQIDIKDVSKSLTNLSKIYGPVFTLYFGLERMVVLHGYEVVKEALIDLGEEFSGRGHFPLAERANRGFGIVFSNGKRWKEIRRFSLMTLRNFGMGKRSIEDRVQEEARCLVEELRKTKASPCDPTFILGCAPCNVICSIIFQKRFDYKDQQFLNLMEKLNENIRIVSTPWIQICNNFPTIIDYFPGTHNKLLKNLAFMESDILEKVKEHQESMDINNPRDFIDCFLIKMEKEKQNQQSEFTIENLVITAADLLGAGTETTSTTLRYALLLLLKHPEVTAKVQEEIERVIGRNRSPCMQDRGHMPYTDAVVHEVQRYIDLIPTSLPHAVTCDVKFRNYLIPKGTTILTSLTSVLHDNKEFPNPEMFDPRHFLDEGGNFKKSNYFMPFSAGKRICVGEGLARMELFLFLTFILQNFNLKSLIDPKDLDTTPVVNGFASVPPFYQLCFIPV

Paired box protein Pax-8 = Paired box protein Pax-8 (Homo sapiens, UniProt Q06710); assay: inhibitors of PAX8-driven TPO luciferase reporter, dose response, RMG-I cells, cherry-pick (AID 687027); format: functional, cell-based;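 also: luciferase reporter driven by Pax8 target thyroperoxidase promoter measured by SteadyGlo luminescence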
Paired box protein Pax-8, sequence (Q06710 whole entry): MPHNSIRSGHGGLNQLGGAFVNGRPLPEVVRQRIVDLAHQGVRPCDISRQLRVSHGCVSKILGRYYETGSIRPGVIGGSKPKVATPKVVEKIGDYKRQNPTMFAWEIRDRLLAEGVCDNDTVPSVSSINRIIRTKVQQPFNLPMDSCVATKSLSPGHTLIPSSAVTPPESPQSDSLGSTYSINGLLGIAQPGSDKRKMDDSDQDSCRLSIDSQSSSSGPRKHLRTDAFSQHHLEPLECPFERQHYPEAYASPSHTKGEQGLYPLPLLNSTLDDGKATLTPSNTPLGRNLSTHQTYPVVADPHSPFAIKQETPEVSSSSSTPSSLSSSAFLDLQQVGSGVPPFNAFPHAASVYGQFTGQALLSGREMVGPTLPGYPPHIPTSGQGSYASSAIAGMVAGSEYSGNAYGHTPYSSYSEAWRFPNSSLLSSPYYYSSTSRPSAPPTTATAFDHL

INS1 = assay: beta cell apoptosis inhibitors, cytokine rescue, dose response, luminescence, retest (AID 449756); format: functional, cell-based; details: Rattus norvegicus;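 also: cell death triggered by IL-1 beta plus TNF-alpha plus IFN-gamma mixture; protective hits raise ATP signal compared with cytokine alone wells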

O=Nc1ccc(NOC(=O)c2ccc(Br)cc2)cc1
AC50 (Cytochrome P450 2C9): 25.1 µM (inconclusive)

COc1ccc(Nc2nc(-c3cccc([N+](=O)[O-])c3)nc3ccccc23)cc1
EC50 [1]: 1.71 µM (active) | EC50 [2]: > 60 µM (not active) | AC50 [3]: 2.83 µM (active)

O=C(O)c1cc([N+](=O)[O-])ccc1NCCCc1ccccc1 [5-NITRO-2-PHENYLPROPYLAMINOBENZOIC ACID [NPPB]]
AC50 (Cytochrome P450 1A2): 39.8 µM (inconclusive)

CC(C)NC(=O)CC(=O)N/N=C\c1ccccc1C(=O)O
EC50 [4]: > 195 µM (not active)

O=C(CSc1nccn1-c1ccccc1)c1ccc(Cl)cc1
AC50 (Cytochrome P450 2D6): 3.16 µM (inconclusive) | AC50 (Cytochrome P450 2C9): 3.98 µM (inconclusive)

Cc1ccc(S(=O)(=O)N(CC(=O)N/N=C/c2ccc(F)cc2)c2cccc3cccnc23)cc1
AC50 (Cytochrome P450 2C9): 1.58 µM (inconclusive)

CCOC(=O)C1=C(N)n2c(s/c(=C/c3ccccc3)c2=O)=C(C(=O)OCC)C1c1ccccc1 (stereo unspecified)
AC50 (Cytochrome P450 2C9): 2.82 µM (inconclusive)

CCNc1ncc2nc(-c3ccc(OC)cc3)c(=O)n(Cc3cccc(OC)c3)c2n1
AC50 (Cytochrome P450 1A2): 15.8 µM (inconclusive) | AC50 (Cytochrome P450 3A4): 25.1 µM (inconclusive)

O=C(O)[C@H]1CCc2ccc3ccccc3c2[C@H]1c1cccc2ccccc12
AC50 (Cytochrome P450 2C9): 7.94 µM (inconclusive)

O=C1Oc2ccccc2C2(O)C3CCCCCC3C12 (stereo unspecified)
AC50 (Cytochrome P450 2C9): 22.4 µM (inconclusive)

COc1cccc(-c2ccc3ncnc(NCc4cccs4)c3c2)c1
AC50 (Cytochrome P450 2C9): 0.631 µM (inconclusive)

C[C@H](CO)NC(=O)[C@H](C)[C@H]1C[C@]1(C)[C@H](NC(=O)OCc1ccccc1)c1ccccc1
AC50 (Cytochrome P450 2D6): 15.8 µM (inconclusive) | AC50 (Cytochrome P450 2C9): 25.1 µM (inconclusive)

C/C(=N/NC(=O)Cc1cccn1C)c1ccccc1
AC50 (Cytochrome P450 2C9): 25.1 µM (inconclusive)

C/C(CCN1CCc2nc(-c3ccccc3)c(-c3ccccc3)cc2C1)=N\O[C@@H](C)CN1CCCc2nc(C)c(C)cc21
AC50 (Cytochrome P450 2D6): 3.16 µM (inconclusive) | AC50 (Cytochrome P450 3A4): 3.98 µM (inconclusive)

Cc1ccc(C(=O)CSc2nc(-c3ccccc3)ccc2C#N)cc1
AC50 [3]: 3.28 µM (active)

COc1cc2c(cc1OC)C(C(=O)N1CCN(c3ccccn3)CC1)C(c1cccs1)N(C)C2=O (stereo unspecified)
AC50 (Cytochrome P450 2C9): 17.8 µM (inconclusive)

C[C@H]1CC[C@@]2(C)[C@@H](CC[C@@H]3[C@@H]2CC[C@]2(C)[C@@H](O)CC[C@@H]32)C1
EC50 (Streptococcus): 2.65 µM (active) | EC50 [5]: 0.643 µM (active)

CC(C)(C)c1ccc(NS(=O)(=O)c2ccc(N)cc2)cc1
AC50 (Cytochrome P450 1A2): 3.16 µM (inconclusive) | AC50 (Cytochrome P450 3A4): 1 µM (inconclusive)

CC(=O)Nc1ccc(C(=O)NNC(=O)CCc2ccccc2)cc1
AC50 (Cytochrome P450 2C9): 39.8 µM (inconclusive)

Cc1cccc(CNc2ncncc2-c2ccc(C(=O)N(C)C)cc2)c1
AC50 (Cytochrome P450 1A2): 15.8 µM (inconclusive) | AC50 (Cytochrome P450 2C19): 31.6 µM (inconclusive)

CC(C)n1c(N2CCN(C(=O)Nc3ccccc3)CC2)nc2ccccc21
AC50 (Cytochrome P450 1A2): 25.1 µM (inconclusive) | AC50 (Cytochrome P450 2C19): 22.4 µM (inconclusive)

CC(C)(C)c1nc(N2CCN(C(=O)c3ccco3)CC2)c2nnn(Cc3ccccc3)c2n1
EC50 [4]: > 195 µM (not active)

CC(C)CC(NC(=O)C1CCCN1C(=O)[C@@H](C)NC(=O)OCc1ccccc1)C(=O)NCC(N)=O (stereo partly specified) (Cbz-[dA][ξP][ξL]G-NH2)
EC50 [4]: > 195 µM (not active)

COC(=O)C1CCN(C(=O)c2sc3nc(-c4ccccc4)cn3c2C)CC1
EC50 [4]: > 195 µM (not active)

O=C(Nc1ccc(F)cc1)c1nc(O)c2nnn(Cc3cccc4ccccc34)c2n1
EC50 (Streptococcus): 37.2 µM (active) | EC50 [5]: 2.58 µM (active)

Oc1ccccc1/C=N/Nc1nnn[nH]1
EC50 [4]: > 195 µM (not active)

CC(=CCOc1ccc2ccc(=O)oc2c1)C1=CC(=O)C(C)(C)O1
AC50 (Paired box protein Pax-8): 4.95 µM (active)

O=c1cc(-c2ccc(O)cc2)oc2c([C@H]3O[C@@H](CO)[C@@H](O)[C@@H](O)[C@@H]3O)c(O)cc(O)c12
AC50 (Cytochrome P450 1A2): 20 µM (inconclusive)

Cc1cccc(-n2c(S)nnc2Cn2nc(C)c([N+](=O)[O-])c2C)c1
AC50 (Cytochrome P450 2C19): 20 µM (inconclusive) | AC50 (Cytochrome P450 2C9): 7.08 µM (inconclusive)

COc1cc(N)ccc1C(=O)O
EC50 [4]: > 195 µM (not active)

COc1ccc(-c2sc3ccccc3c2-c2ccc(OCCN3CCCCC3)cc2)cc1
AC50 (INS1): 8.34 µM (active) | AC50 [3]: 0.914 µM (active)

Sc1nnc(-c2ccc(Cl)cc2)n1Cc1ccccc1
AC50 [3]: 0.734 µM (active)

COCCn1c(=O)[nH]c2cc(C(=O)NC3CCCCCC3)ccc2c1=O
EC50 [4]: > 195 µM (not active)

CN(C(=O)C1CCOC1)c1nnc(-c2ccncc2)s1 (stereo unspecified)
EC50 [4]: > 195 µM (not active)

C[C@@H]1CCCCO[C@H](CN(C)C(=O)Cc2ccccc2)[C@H](C)CN([C@@H](C)CO)C(=O)c2cc(NC(=O)Nc3ccc(C(F)(F)F)cc3)ccc2O1
AC50 (Paired box protein Pax-8): 8.05 µM (active)

COC(=O)[C@@]1(Cc2ccccc2)[C@H]2c3cc(C(=O)N(C)C)n(Cc4c(CO)ncc(C)c4O)c3C[C@H]2CN1C(=O)c1ccccc1
AC50 (Cytochrome P450 1A2): 25.1 µM (inconclusive)

Cc1cc(OCC(F)(F)C(F)(F)C(F)(F)C(F)(F)C(F)(F)C(F)F)nc(N)n1
AC50 (Cytochrome P450 1A2): 28.2 µM (inconclusive)

CC(Nc1nc(-c2ccc(Cl)cc2)cs1)c1nc2cc(Cl)c(N3CCCCC3)cc2n1CCOCCO (stereo unspecified)
AC50 [3]: 1.1 µM (active)

N#CCC(=O)Nc1ccc(C(=O)OC(C(=O)Nc2cc(C(F)(F)F)ccc2Cl)c2ccccc2)cc1 (stereo unspecified)
EC50 (Streptococcus): 6.92 µM (active) | EC50 [5]: 2.31 µM (active)

O=[N+]([O-])c1cccnc1N1CCCCC1
AC50 (Cytochrome P450 2C19): 0.00562 µM (inconclusive) | AC50 (Cytochrome P450 2C9): 3.16 µM (inconclusive)

CC1(C(=O)NCCCNc2ncc(C(F)(F)F)cc2Cl)C=CC2(CCCCC2)N1C(=O)c1ccccc1 (stereo unspecified)
EC50 [4]: > 195 µM (not active)

CC1CCCC(C)N1C(=O)CSc1ccc(-c2ccc3c(c2)OCCO3)nn1 (stereo unspecified)
EC50 [4]: > 195 µM (not active)

C/C(CC(=O)Nc1ccc(N(C)C)cc1)=N\NC(=O)Cc1csc(N)n1
EC50 [4]: > 195 µM (not active)

O=C(C[C@H]1CC[C@H]2[C@@H](COC[C@@H](O)CN2S(=O)(=O)c2ccccc2Cl)O1)N1CCC(Cc2ccccc2)CC1
AC50 (Paired box protein Pax-8): 23.7 µM (active)

O=C(NCc1ccccc1Cl)C1CCN(S(=O)(=O)N2CCCC2)CC1
EC50 [4]: > 195 µM (not active)

CCCCCCN(CCCCCC)C(=O)Cc1c(-c2ccc(Cl)cc2)[nH]c2ccc(Cl)cc12
AC50 (Cytochrome P450 1A2): 31.6 µM (inconclusive) | AC50 (Cytochrome P450 2C19): 10 µM (inconclusive)

CCC(=O)[C@@H](c1ccccc1)c1ccccn1
AC50 (Cytochrome P450 1A2): 5.01 µM (inconclusive)

COCCn1c(=O)c(-c2cccs2)nc2cncnc21
AC50 (Cytochrome P450 2C19): 25.1 µM (inconclusive) | AC50 (Cytochrome P450 2C9): 20 µM (inconclusive)

CCCCCCc1c(O)noc1C[C@H](N)C(=O)O
AC50 (Cytochrome P450 1A2): 25.1 µM (inconclusive) and 31.6 µM (inconclusive)

C=CCSc1nn2c(=O)c3ccccc3nc2s1
AC50 (Cytochrome P450 2D6): 25.1 µM (inconclusive) | AC50 (Cytochrome P450 2C9): 25.1 µM (inconclusive)

O=C(CNC(=O)c1ccco1)OC(C(=O)c1ccccc1)c1ccccc1 (stereo unspecified)
AC50 (Cytochrome P450 1A2): 15.8 µM (inconclusive) | AC50 (Cytochrome P450 3A4): 28.2 µM (inconclusive)

CCOc1ccc(N2C(=O)CN=C2Nc2ccccc2Cl)cc1
AC50 (Cytochrome P450 3A4): 15.8 µM (inconclusive) | AC50 (Cytochrome P450 2C19): 11.2 µM (inconclusive)

Cn1cccc1C(=O)N1CCC2(CC1)CCN(c1cccc(-c3ccccc3)c1)CC2
AC50 (Cytochrome P450 1A2): 20 µM (inconclusive)

O=C(Nc1nnc(S(=O)(=O)N2CCCCCC2)s1)c1ccccc1Cl
EC50 [4]: > 195 µM (not active)

CCCCCCSc1cccc(-c2nc3ccc(C)cn3c2NCc2ccccc2)c1
AC50 [3]: 3.14 µM (active)

COC(=O)CCN1CCc2cc(N=Nc3ccc([N+](=O)[O-])cc3)ccc21
EC50 [4]: 40.1 µM (active)

From ChEMBL document CHEMBL1201862, “PubChem BioAssay data set” (2004)
